Laboratory results from patent US20240158446A1, “CYCLIC COMPOUND HAVING SELECTIVE INHIBITORY ACTION ON KRAS OVER HRAS AND NRAS” (CHUGAI SEIYAKU KABUSHIKI KAISHA, priority 2021, published 2024).

Assays:
[1] = molecular target: GDP-bound KRAS wild-type protein (Homo sapiens, UniProt P01116); test: Binding to KRAS by surface plasmon resonance (SPR), Single Cycle Kinetics; conditions: SPR, Single Cycle Kinetics, 1:1 binding model; GDP-bound KRAS wild-type protein; read-out: KRAS KD
[2] = molecular target: GDP-bound NRAS wild-type protein (Homo sapiens, UniProt P01111); test: Binding to NRAS by surface plasmon resonance (SPR), Single Cycle Kinetics; conditions: SPR; GDP-bound NRAS wild-type protein vs GDP-bound KRAS wild-type protein; KD ratio class
Sequence of GDP-bound NRAS wild-type protein (P01111 whole entry): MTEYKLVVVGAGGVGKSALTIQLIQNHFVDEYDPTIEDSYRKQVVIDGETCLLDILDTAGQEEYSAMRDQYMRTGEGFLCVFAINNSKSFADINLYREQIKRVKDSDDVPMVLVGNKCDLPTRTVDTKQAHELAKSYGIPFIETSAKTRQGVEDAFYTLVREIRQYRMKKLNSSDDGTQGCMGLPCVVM

[3] = molecular target: GDP-bound HRAS wild-type protein (Homo sapiens, UniProt P01112); test: Binding to HRAS by surface plasmon resonance (SPR), Single Cycle Kinetics; conditions: SPR; GDP-bound HRAS wild-type protein vs GDP-bound KRAS wild-type protein; KD ratio class
Sequence of GDP-bound HRAS wild-type protein (P01112 whole entry): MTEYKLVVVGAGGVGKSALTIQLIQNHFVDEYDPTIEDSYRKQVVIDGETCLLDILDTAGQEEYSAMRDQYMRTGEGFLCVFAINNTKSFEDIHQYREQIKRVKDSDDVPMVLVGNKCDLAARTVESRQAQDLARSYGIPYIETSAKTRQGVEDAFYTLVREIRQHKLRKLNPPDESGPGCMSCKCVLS

[4] = tested on: human lung cancer strain NCI-H441;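 further: cell proliferation inhibition after four days measured by CellTiter-Glo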

Sequence of GDP-bound KRAS wild-type protein (P01116 whole entry): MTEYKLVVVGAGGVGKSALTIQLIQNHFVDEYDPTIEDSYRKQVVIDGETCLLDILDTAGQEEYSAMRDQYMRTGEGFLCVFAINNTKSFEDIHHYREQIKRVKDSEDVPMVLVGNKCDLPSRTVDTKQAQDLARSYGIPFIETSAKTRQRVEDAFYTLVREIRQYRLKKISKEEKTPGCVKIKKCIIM

Row | SMILES | Kd [1] [nM] | IC50 [4] [nM] | NRAS/KRAS (ratio of KD value for NRAS to KD value for KRAS) [2] | HRAS/KRAS (ratio of KD value for HRAS to KD value for KRAS) [3]
1 | CCO[C@@H]1C[C@H]2C(=O)NC3(CCC3)C(=O)N(C)[C@@H](C3CCCC3)C(=O)N(C)[C@H](C(=O)N(C)C)CC(=O)N(C)[C@@H](CC3CCCC3)C(=O)N[C@@H]([C@@H](C)CC)C(=O)N(C)CC(=O)N(C)[C@H]3C/C=C\CCN(C3=O)[C@@H](CC3CCC(F)(F)CC3)C(=O)N(C)CC(=O)N[C@@H](CCc3cc(F)c(C(F)(F)F)c(F)c3)C(=O)N2C1 [PP1458] | 0.15 | 18.2 | A (a compound having 10 or more and less than 20 is denoted as A) | A (a compound having 10 or more and less than 20 is denoted as A)
2 | CCO[C@@H]1C[C@H]2C(=O)NC3(CCCC3)C(=O)N(C)[C@@H](C3CCCC3)C(=O)N(C)[C@H](C(=O)N(C)C)CC(=O)N(C)[C@@H](CC(C)C)C(=O)N[C@@H]([C@@H](C)CC)C(=O)N(C)CC(=O)N(C)[C@H]3C/C=C\CCN(C3=O)[C@@H](CC3CCC(F)(F)CC3)C(=O)N(C)CC(=O)N[C@@H](CCc3cc(F)c(C(F)(F)F)c(F)c3)C(=O)N2C1 [PP1459] | 0.2 | 38.6 | A (a compound having 10 or more and less than 20 is denoted as A) | A (a compound having 10 or more and less than 20 is denoted as A)
3 | CCO[C@@H]1C[C@H]2C(=O)NC3(CCC3)C(=O)N(C)[C@@H](C3CCCC3)C(=O)N(C)[C@H](C(=O)N(C)C)CC(=O)N(C)[C@@H](CC(C)(C)C)C(=O)N[C@@H]([C@@H](C)CC)C(=O)N(C)CC(=O)N(C)[C@H]3C/C=C\CCN(C3=O)[C@@H](CC3CCC(F)(F)CC3)C(=O)N(C)CC(=O)N[C@@H](CCc3cc(F)c(C(F)(F)F)c(F)c3)C(=O)N2C1 [PP1460] | 0.23 | 32.9 | A (a compound having 10 or more and less than 20 is denoted as A) | A (a compound having 10 or more and less than 20 is denoted as A)
4 | CC[C@H](C)[C@@H]1NC(=O)[C@H](CC)N(C)C(=O)C[C@@H](C(=O)N(C)C)N(C)C(=O)[C@H](C2CCCC2)N(C)C(=O)C2(CCC2)NC(=O)[C@@H]2CCCN2C(=O)[C@H](CCc2cc(F)c(C(F)(F)F)c(F)c2)NC(=O)CN(C)C(=O)[C@H](CC2CCC(F)(F)CC2)N2CC/C=C\C[C@@H](C2=O)N(C)C(=O)CN(C)C1=O [PP1461] | 0.27 | 121 | A (a compound having 10 or more and less than 20 is denoted as A) | A (a compound having 10 or more and less than 20 is denoted as A)
5 | CCC[C@H]1C(=O)N[C@@H]([C@@H](C)CC)C(=O)N(C)CC(=O)N(C)[C@H]2C/C=C\CCN(C2=O)[C@@H](CC2CCCCC2)C(=O)N(C)CC(=O)N[C@@H](CCc2cc(F)c(C(F)(F)F)c(F)c2)C(=O)N2C[C@H](OCC)C[C@H]2C(=O)NC2(CCC2)C(=O)N(C)[C@@H](C2CCCC2)C(=O)N(C)[C@H](C(=O)N(C)C)CC(=O)N1C [PP1464] | 0.15 | 32.3 | A (a compound having 10 or more and less than 20 is denoted as A) | A (a compound having 10 or more and less than 20 is denoted as A)
6 | CC[C@H](C)[C@@H]1NC(=O)[C@H](CC)N(C)C(=O)C[C@@H](C(=O)N(C)C)N(C)C(=O)[C@H](C2CCCC2)N(C)C(=O)C2(CCC2)NC(=O)[C@@H]2C[C@@H](C(F)(F)F)CN2C(=O)[C@H](CCc2cc(F)c(C(F)(F)F)c(F)c2)NC(=O)CN(C)C(=O)[C@H](CC2CCCCC2)N2CC/C=C\C[C@@H](C2=O)N(C)C(=O)CN(C)C1=O [PP1465] | 0.36 | 34.1 | A (a compound having 10 or more and less than 20 is denoted as A) | A (a compound having 10 or more and less than 20 is denoted as A)

More lines, main results first:

Row | Kd [1] [nM] | IC50 [4] [nM] | SMILES | NRAS/KRAS (ratio of KD value for NRAS to KD value for KRAS) [2] | HRAS/KRAS (ratio of KD value for HRAS to KD value for KRAS) [3]
7 | 0.15 | 30.4 | CC[C@H](C)[C@@H]1NC(=O)[C@H](CC)N(C)C(=O)C[C@@H](C(=O)N(C)C)N(C)C(=O)[C@H](C2CCCC2)N(C)C(=O)C2(CCC2)NC(=O)[C@@H]2C[C@H](C)CN2C(=O)[C@H](CCc2cc(F)c(C(F)(F)F)c(F)c2)NC(=O)CN(C)C(=O)[C@H](CC2CCC(F)(F)CC2)N2CC/C=C\C[C@@H](C2=O)N(C)C(=O)CN(C)C1=O [PP1457, (2S,8S,12S,14S,20S,23S,27S,30S,36S,38Z)-20-cyclopentyl-2-[(4,4-difluorocyclohexyl)methyl]-8-[2-[3,5-difluoro-4-(trifluoromethyl)phenyl]ethyl]-27-ethyl-N,N,4,12,19,22,26,32,35-nonamethyl-30-[(1S)-1-methylpropyl]-3,6,9,15,18,21,25,28,31,34,42-undecaoxo-spiro[1,4,7,10,16,19,22,26,29,32,35-undecazatricyclo[34.5.1.0^10,14]dotetracont-38-ene-17,1′-cyclobutane]-23-carboxamide] | A (a compound having 10 or more and less than 20 is denoted as A) | A (a compound having 10 or more and less than 20 is denoted as A)
8 | 0.12 | 27.5 | CC[C@H](C)[C@@H]1NC(=O)[C@H](CC)N(C)C(=O)C[C@@H](C(=O)N(C)C)N(C)C(=O)[C@H](C2CCCC2)N(C)C(=O)C2(CCC2)NC(=O)[C@@H]2CC(F)(F)CN2C(=O)[C@H](CCc2cc(F)c(C(F)(F)F)c(F)c2)NC(=O)CN(C)C(=O)[C@H](CC2CCCCC2)N2CC/C=C\C[C@@H](C2=O)N(C)C(=O)CN(C)C1=O [PP1462, (2S,8S,14S,20S,23S,27S,30S,36S,38Z)-2-(cyclohexylmethyl)-20-cyclopentyl-8-[2-[3,5-difluoro-4-(trifluoromethyl)phenyl]ethyl]-27-ethyl-12,12-difluoro-N,N,4,19,22,26,32,35-octamethyl-30-[(1S)-1-methylpropyl]-3,6,9,15,18,21,25,28,31,34,42-undecaoxo-spiro[1,4,7,10,16,19,22,26,29,32,35-undecazatricyclo[34.5.1.0^10,14]dotetracont-38-ene-17,1′-cyclobutane]-23-carboxamide] | A (a compound having 10 or more and less than 20 is denoted as A) | A (a compound having 10 or more and less than 20 is denoted as A)
9 | 0.13 | 44.5 | CCO[C@@H]1C[C@H]2C(=O)NC3(CCC3)C(=O)N(C)[C@@H](C3CCCC3)C(=O)N(C)[C@H](C(=O)N(C)C)CC(=O)N(C)[C@@H](CSC)C(=O)N[C@@H]([C@@H](C)CC)C(=O)N(C)CC(=O)N(C)[C@H]3C/C=C\CCN(C3=O)[C@@H](CC3CCCCC3)C(=O)N(C)CC(=O)N[C@@H](CCc3cc(F)c(C(F)(F)F)c(F)c3)C(=O)N2C1 [PP1463, (2S,8S,12R,14S,20S,23S,27R,30S,36S,38Z)-2-(cyclohexylmethyl)-20-cyclopentyl-8-[2-[3,5-difluoro-4-(trifluoromethyl)phenyl]ethyl]-12-ethoxy-N,N,4,19,22,26,32,35-octamethyl-30-[(1S)-1-methylpropyl]-27-(methylsulfanylmethyl)-3,6,9,15,18,21,25,28,31,34,42-undecaoxo-spiro[1,4,7,10,16,19,22,26,29,32,35-undecazatricyclo[34.5.1.0^10,14]dotetracont-38-ene-17,1′-cyclobutane]-23-carboxamide] | A (a compound having 10 or more and less than 20 is denoted as A) | A (a compound having 10 or more and less than 20 is denoted as A)
